In the data set the target is ATP-binding cassette sub-family C member 2 (Rattus norvegicus, UniProt Q63120). Description: TP_TRANSPORTER: Western in vivo, liver of SD rat. The data set is classed as functional, organism-based, Sprague-Dawley.

SMILES strings stand for the structures.

ATP-binding cassette sub-family C member 2, sequence (Q63120 whole entry): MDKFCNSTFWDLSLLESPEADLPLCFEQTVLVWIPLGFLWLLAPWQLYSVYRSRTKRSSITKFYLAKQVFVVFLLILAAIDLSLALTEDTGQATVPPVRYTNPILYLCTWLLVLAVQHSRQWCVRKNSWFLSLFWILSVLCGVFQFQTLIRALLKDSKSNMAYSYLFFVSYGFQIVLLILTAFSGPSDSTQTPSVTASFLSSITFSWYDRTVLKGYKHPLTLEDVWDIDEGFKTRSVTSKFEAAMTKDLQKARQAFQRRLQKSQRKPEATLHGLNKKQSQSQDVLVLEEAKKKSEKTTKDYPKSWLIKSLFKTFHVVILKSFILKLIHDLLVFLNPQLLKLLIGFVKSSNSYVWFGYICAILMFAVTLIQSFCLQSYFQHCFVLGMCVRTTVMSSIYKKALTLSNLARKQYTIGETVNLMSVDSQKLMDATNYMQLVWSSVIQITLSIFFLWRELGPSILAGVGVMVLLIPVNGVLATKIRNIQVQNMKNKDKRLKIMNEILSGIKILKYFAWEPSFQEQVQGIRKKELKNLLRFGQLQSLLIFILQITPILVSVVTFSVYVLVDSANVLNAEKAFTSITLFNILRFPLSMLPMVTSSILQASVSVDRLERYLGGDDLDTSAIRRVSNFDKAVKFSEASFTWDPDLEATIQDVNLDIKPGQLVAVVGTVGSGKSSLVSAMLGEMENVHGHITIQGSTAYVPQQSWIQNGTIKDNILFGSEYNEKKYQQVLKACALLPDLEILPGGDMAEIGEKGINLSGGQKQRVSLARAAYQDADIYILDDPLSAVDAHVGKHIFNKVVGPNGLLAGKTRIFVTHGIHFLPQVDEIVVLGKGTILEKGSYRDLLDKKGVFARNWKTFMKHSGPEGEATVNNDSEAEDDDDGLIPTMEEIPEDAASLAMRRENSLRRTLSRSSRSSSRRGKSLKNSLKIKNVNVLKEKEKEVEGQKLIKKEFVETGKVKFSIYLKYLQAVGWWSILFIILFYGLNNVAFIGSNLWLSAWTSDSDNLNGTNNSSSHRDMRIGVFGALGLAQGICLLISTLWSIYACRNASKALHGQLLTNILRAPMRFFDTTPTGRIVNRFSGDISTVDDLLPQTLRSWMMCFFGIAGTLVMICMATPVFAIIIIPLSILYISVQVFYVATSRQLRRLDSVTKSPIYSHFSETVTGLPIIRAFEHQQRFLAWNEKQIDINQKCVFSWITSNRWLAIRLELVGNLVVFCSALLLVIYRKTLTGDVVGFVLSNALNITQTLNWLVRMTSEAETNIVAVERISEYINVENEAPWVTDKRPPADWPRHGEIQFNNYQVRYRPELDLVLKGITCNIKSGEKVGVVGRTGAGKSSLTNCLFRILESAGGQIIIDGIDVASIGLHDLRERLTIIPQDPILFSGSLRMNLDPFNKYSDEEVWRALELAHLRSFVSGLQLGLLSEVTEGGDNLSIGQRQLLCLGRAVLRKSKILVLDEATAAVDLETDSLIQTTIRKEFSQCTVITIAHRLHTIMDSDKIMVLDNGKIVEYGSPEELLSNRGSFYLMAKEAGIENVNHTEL

Regarding `CC(=O)S[C@@H]1CC2=CC(=O)CC[C@]2(C)[C@H]2CC[C@@]3(C)[C@@H](CC[C@@]34CCC(=O)O4)[C@H]12` [SPIRONOLACTONE], the Activity result was “inducer [+]”.

As for `CCOc1ccc2c(c1)C(C)=CC(C)(C)N2` [E324], the Activity entry was “inducer [+]”.

The values above are taken from ChEMBL document CHEMBL2074481, “Regulation of rat multidrug resistance protein 2 by classes of prototypical microsomal enzyme inducers that activate distinct transcription pathways” (Toxicol Sci, 2002).
